Measurements: PubChem BioAssay (NCI)
Values joined by “and” are separate entries in the source; they are usually repeats but may differ in a detail not shown here. Equal values may be shown once.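 Results reflect a 48-hour exposure of cells in 96-well plates to compound at five concentrations. GI50: concentration for 50% inhibition of growth. The concentration for full growth arrest is given as TGI.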

What was measured:
Experiment in all cases: NCI tumour cell line growth inhibition, 48 h
[1] = tested on: ACHN renal
[2] = tested on: BT-549 breast
[3] = tested on: DU-145 prostate
[4] = tested on: HCT-15 colon
[5] = tested on: MCF7 breast
[6] = tested on: MDA-MB-231 breast
[7] = tested on: RXF 393 renal
[8] = tested on: SK-OV-3 ovarian
[9] = tested on: SR leukemia
[10] = tested on: UACC-257 melanoma

SMILES | TGI [1] | TGI [2] | TGI [3] | TGI [4] | TGI [5] | TGI [6] | TGI [7] | TGI [8] | TGI [9] | TGI [10] [µM] | GI50 [1] [µM] | GI50 [2] [µM] | GI50 [3] [µM] | GI50 [4] [µM] | GI50 [5] [µM] | GI50 [6] [µM] | GI50 [7] [µM] | GI50 [8] | GI50 [9] [nM] | GI50 [10]
CN(C)CCNC(=O)c1ccc(NC(=O)c2nc([N+](=O)[O-])cn2C)cc1 | > 100 µM | > 100 µM | > 100 µM | > 100 µM | > 100 µM | > 100 µM | > 100 µM | > 100 µM | > 100 µM | > 100 |  |  |  |  |  |  |  |  |  | 
Cc1cnc(C(=O)Nc2nc3ccc(S(=O)(=O)Nc4ccc(C5(C(F)(F)F)CC5)cc4)cc3[nH]2)cn1 | 14 µM | 12.7 µM | 2.23 µM | 5.09 µM | 5.68 µM | 15.6 µM | 1.11 µM | 22.7 µM | > 39.5 µM | 29.9 | 0.552 | 0.965 | 0.357 | 0.205 | 0.287 | 1.5 | 0.226 | 1.57 µM | 77.7 | 5.13 µM
CC(C)CC(NC(=O)OC(C)(C)C)C(=O)Nc1ccc(Nc2nc(F)nc(-c3c4ccccc4cn3C)n2)cc1 (stereo unspecified) | > 100 µM | > 100 µM | 39.7 µM | > 100 µM | 31.4 µM | > 100 µM | > 87.1 µM | > 100 µM | > 74.1 µM | > 100 |  |  |  |  |  |  |  |  |  | 
O=C1CCc2c(sc3[nH]c(=S)n(Cc4ccc(Cl)cc4)c(=O)c23)C1 | 3.63 µM | 3.03 µM | > 100 µM | 1.64 µM | > 38.6 µM | 1.68 µM | 5.05 µM | 8.92 µM | > 45.2 µM | 5.72 | 0.465 | 0.363 | 2.47 | 0.347 | 2.22 | 0.379 | 0.401 | 2.86 µM | 562 | 1.33 µM
O=C1C(Cl)=C(NCc2ccco2)C(=O)c2ccccc21 | > 100 µM | 50.7 µM | 6.27 µM | 56.5 µM | > 27.9 µM | > 81.5 µM | 50.6 µM | > 100 µM | > 100 µM | 40 | 27 | 22 | 2.6 | 4.77 | 2.39 | 18.4 | 21.6 | 40.3 µM | 20600 | 7.81 µM
S=P(N1CC1)(N1CC1)N1CC1 | 37.3 µM and 335 µM | 507 µM and 445 µM | 520 µM and 97.8 µM |  | 311 µM and 550 µM | 678 µM and 777 µM | 39.6 µM and 251 µM and 308 µM | 47.2 µM and 406 µM and 296 µM | > 51.4 µM and 441 µM |  | 3.39 | 224 | 11.9 | 26.2 |  | 529 | 18.8 | 16 µM and 143 µM |  | 29 µM and 272 µM
COc1cccc(/C=N/C(/N=C/c2cccc(OC)c2O)c2cccc(OC)c2O)c1O | 58.6 µM | 71.9 µM | 78.7 µM | > 100 µM | 62.8 µM | > 100 µM | 29.2 µM | 78.1 µM | 35.1 µM | 58.9 |  |  |  |  |  |  |  |  |  | 
CCOC(=O)c1c2c(n3ccccc13)C(=O)c1ncccc1C2=O | 6.24 µM | 41 µM | 5.31 µM | 12.8 µM | 1.77 µM | > 100 µM | 13.9 µM | 22.9 µM | > 100 µM | 4.21 | 0.0343 | 0.0637 | 0.0466 | 0.024 | 0.0284 | 2.76 | 0.0792 | 0.0683 µM | 15.9 | 0.28 µM
NCCCNCCCCNC(=O)C(O)NC(=O)CCCCCCN=C(N)N (stereo unspecified) | > 5000 µM | 750 µM and 4950 µM | > 5000 µM | 750 µM and > 5000 µM | 750 µM and > 5000 µM | > 5000 µM | 750 µM and > 5000 µM | > 5000 µM | 750 µM and > 4240 µM | > 5000 | 2750 | 1540 | 2890 | > 2640 | 1750 | > 2570 | 3480 | > 5000 µM | 530000 | > 4100 µM
Cc1cc(C)c(-n2c(-c3ccc(Br)cc3)cs/c2=N\N=C2C=C(C(C)(C)C)C(=O)C(C(C)(C)C)=C2)c(C)c1 | > 100 µM | > 100 µM | > 100 µM | > 100 µM | > 100 µM | > 100 µM | 81.8 µM | > 100 µM | > 100 µM | > 100 |  |  |  |  |  |  |  |  |  | 
O=C(/C=C/c1ccc(C(F)(F)F)cc1)c1ccc(Nc2nc(NCCO)nc(Nc3ccc(Cl)cc3)n2)cc1 | 17 µM | 7.97 µM | 18.7 µM | 5.92 µM | 5.56 µM | 16.1 µM | 4.16 µM | 34.3 µM | 8.74 µM | 31.2 | 4.81 | 3.07 | 6.08 | 2.08 | 1.49 | 4.21 | 1.82 | 13.4 µM | 1950 | 10.1 µM
O=C1c2ccccc2S(=O)(=O)c2cc(-c3nn[nH]n3)ccc21 | > 100 µM | > 100 µM | > 100 µM | > 100 µM | > 100 µM | > 100 µM | > 100 µM | > 100 µM | > 100 µM | > 100 |  |  |  |  |  |  |  |  |  | 
CCN1CCN(CC(=O)N2c3cccc4cccc(c34)N(C(=O)CN3CCN(CC)CC3)C2c2cn(-c3ccccc3)nc2-c2cccc([N+](=O)[O-])c2)CC1 | 3.08 µM | 3.24 µM | 4.03 µM | 2.98 µM | 3.24 µM | 2.88 µM | 3.09 µM | 3.74 µM | 0.8 µM | 3.68 | 1.64 | 1.67 | 1.96 | 1.46 | 1.62 | 1.42 | 1.62 | 1.9 µM | 267 | 1.85 µM
